Laboratory results published in US20130078351A1, “COMPOUNDS AND METHODS FOR ENHANCING SALTY TASTE” (Monell Chemical Senses Center, priority 2010, published 2013).

Key:
[1] = biological target: T1, Epithelial Sodium Channel (ENaC) subunits delta/beta/gamma (Homo sapiens, UniProt P51168+P51170+P51172); experiment: Testing in Xenopus oocytes expressing ENaC (inward sodium current recording); type: cell-based; settings: oocyte expressing delta
T1 construct: expressed in transfected cells; host or cells: Xenopus laevis oocytes injected with cRNA
T1 sequence (P51172 1-802): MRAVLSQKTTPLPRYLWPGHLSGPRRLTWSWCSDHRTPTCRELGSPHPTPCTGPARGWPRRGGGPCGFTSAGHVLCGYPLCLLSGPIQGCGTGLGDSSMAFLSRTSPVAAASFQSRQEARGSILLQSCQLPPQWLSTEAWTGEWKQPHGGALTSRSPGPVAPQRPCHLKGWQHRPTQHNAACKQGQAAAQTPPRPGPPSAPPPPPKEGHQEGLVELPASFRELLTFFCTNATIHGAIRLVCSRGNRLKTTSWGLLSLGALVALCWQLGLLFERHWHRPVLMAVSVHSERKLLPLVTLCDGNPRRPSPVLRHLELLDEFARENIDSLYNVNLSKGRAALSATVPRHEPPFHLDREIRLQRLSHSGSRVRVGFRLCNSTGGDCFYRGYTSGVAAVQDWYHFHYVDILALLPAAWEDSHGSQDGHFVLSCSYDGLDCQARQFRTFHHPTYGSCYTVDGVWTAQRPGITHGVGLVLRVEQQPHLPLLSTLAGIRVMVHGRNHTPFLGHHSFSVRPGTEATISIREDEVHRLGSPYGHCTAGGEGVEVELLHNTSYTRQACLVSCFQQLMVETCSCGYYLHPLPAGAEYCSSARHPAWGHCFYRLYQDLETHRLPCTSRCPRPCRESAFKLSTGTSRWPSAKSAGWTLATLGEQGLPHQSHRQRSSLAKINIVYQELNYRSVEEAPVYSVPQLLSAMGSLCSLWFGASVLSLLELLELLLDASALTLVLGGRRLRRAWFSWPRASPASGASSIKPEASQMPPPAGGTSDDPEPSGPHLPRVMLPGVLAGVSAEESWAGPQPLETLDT
T1 sequence (P51168 1-640): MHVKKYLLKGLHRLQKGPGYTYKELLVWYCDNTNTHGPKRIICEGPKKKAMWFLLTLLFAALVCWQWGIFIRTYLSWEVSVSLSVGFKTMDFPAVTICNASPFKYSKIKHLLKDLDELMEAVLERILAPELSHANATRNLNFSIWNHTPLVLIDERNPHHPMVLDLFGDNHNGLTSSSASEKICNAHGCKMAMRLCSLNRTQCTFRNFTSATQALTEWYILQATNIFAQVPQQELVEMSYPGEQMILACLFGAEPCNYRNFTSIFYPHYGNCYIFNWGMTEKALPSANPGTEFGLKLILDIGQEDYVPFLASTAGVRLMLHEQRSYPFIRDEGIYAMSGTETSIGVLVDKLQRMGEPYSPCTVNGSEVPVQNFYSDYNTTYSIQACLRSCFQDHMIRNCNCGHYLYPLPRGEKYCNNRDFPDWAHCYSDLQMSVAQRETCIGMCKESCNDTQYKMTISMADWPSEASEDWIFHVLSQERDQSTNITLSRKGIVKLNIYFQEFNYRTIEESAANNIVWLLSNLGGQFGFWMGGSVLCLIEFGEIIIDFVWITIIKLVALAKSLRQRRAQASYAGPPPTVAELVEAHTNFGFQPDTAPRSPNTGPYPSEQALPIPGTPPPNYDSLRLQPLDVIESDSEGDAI
T1 sequence (P51170 1-649): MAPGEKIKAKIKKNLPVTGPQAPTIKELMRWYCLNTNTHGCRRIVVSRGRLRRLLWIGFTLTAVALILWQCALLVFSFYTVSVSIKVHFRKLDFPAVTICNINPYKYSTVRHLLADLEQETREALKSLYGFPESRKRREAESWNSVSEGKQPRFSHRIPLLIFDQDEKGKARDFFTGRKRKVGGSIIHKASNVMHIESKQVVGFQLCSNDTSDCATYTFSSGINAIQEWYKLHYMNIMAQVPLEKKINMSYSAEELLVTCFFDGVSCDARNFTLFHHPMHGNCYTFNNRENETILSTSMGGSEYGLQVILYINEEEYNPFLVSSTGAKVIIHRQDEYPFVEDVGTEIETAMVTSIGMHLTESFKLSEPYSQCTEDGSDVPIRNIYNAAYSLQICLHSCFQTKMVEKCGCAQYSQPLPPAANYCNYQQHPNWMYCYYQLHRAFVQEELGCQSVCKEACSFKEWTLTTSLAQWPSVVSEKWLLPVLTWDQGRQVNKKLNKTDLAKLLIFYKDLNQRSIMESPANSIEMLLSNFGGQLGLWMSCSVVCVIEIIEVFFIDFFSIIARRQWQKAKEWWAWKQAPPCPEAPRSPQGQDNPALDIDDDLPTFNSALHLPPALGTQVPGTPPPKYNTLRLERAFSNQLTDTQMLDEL
Description: The frog, Xenopus laevis, produces oocytes that are particularly obliging in permitting a foreign gene to be incorporated into its protein translation system. The egg then makes this foreign protein encoded by the injected complimentary RNA (cRNA). Oocytes are harvested when at stage 5 or 6, from female Xenopus and defolliculated (using trypsin) and placed in low sodium culture medium. After overnight culture the egg is injected with the cRNA of the protein(s) of interest.
There is evidence that one of the major “receptors” of salty taste is the ENaC. This channel functions as a heterotrimer, a complex of three different peptides. The transfected eggs are then cultured for 4 to 6 days. Depending upon the endpoint of the study, all three subunits are expressed into one cell or one subunit is expressed per cell. The internal machinery of the cell places the ENaC into the plasma membrane. These preparations can be used as follows: • 1. Two Electrode Voltage Clamp (TEVC) across the entire oocyte is the most direct method for detecting ion flux through the ENaC, but it will respond to any ion movement, making it less desirable for precise analyses, but very useful as an initial screen. • 2. Patch clamp is used to record movement of very few ions through very few channels. […]

human taste = experiment: Psychophysical assessment of salty taste enhancing properties; type: in vivo
Description: 121 subjects participated in this study. They were familiar with the taste of the 5 modalities (sweet, bitter, umami, sour, and salty), and the use of a modality—specific task. Each subject was presented with 5 cups, each having 10 ml of fluid, plus a large amount of water as a rinse before and in between each sampling. Subjects were told to hold the sample in their mouth for several seconds before making a judgment. Subjects sampled and rated all five solutions, then repeated the study. Subjects rated intensity and modality. The samples tested were • 1. 50 mM NaCl • 2. 75 mM NaCl • 3. N-(2-hydroxyethyl)-4-methylpentanamide at 20 ppm • 4. 50mM NaCl plus 20 ppm N-(2-hydroxyethyl)-4-methylpentanamide • 5. 75 mM NaCl plus 20 ppm N-(2-hydroxyethyl)-4-methylpentanamide
The results of this study are depicted in FIG. 1. The X-axis of FIG. 1 provides the identity of the five solutions that were rated and the Y-axis provides the Geometric Mean saltiness intensity ratings. Error bars are Geometric Standard Errors. […] It was slightly bitter tasting with an average bitterness intensity of 3 (data not shown). N-(2-hydroxyethyl)-4-methylpentanamide enhanced the saltiness of 50 mM NaCl by more than 100% and the saltiness of 75 mM NaCl by approximately 35%. Consistency among subjects was high as indicated by the error bars.

reversibility of inward current [1]: completely reversible | effect on sodium currents (inward current) in oocytes ([1]; successive addition of increasing (nanomolar) concentrations, from baseline state): enhancement of sodium currents
Compound: CC(C)CCC(=O)NCCO [N-(2-hydroxyethyl)-4-methylpentanamide]
enhancement of saltiness of 50 mM NaCl (human taste; 50 mM NaCl plus 20 ppm compound, geometric mean saltiness intensity ratings): more than 100% | enhancement of saltiness of 75 mM NaCl (human taste; 75 mM NaCl plus 20 ppm compound, geometric mean saltiness intensity ratings): approximately 35% | saltiness of its own (saltiness intensity rating) (human taste; compound alone at 20 ppm, 121 subjects): almost no saltiness of its own | average bitterness intensity (human taste; compound alone at 20 ppm, data not shown): 3
